In the supplement of paper PMC10307832:

Experiments:
Experiment in all cases: relative viability (nuclei count vs DMSO), 5 days (fraction); higher = more cells survive
[1] = test system: NCI-H2009
How it was run: (§1)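 Lung cancer cell lines, seeded in 1536-well plates, were treated the following day by pin tool with a single drug or with five library-drug doses (not always all listed) in √10 steps on top of a fixed anchor-drug dose. Cells were fixed and nuclei stained in one step after 5 days, and nuclei were counted. Relative viability is the nuclei count for treated wells divided by that for vehicle wells, reported as medians of duplicate plates.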

[2] = test system: NCI-H1792
How it was run: as §1

[3] = test system: SK-LU-1
How it was run: as §1

[4] = test system: NCI-H1993
How it was run: as §1

[5] = test system: LC-2-ad
How it was run: as §1

[6] = test system: HCC-15
How it was run: as §1

[7] = test system: NCI-H647
How it was run: as §1

[8] = test system: RERF-LC-KJ
How it was run: as §1

[9] = test system: LCLC-97TM1
How it was run: as §1

[10] = test system: NCI-H1755
How it was run: as §1

[11] = test system: NCI-H2085
How it was run: as §1

[12] = test system: SK-MES-1
How it was run: as §1

[13] = test system: NCI-H23
How it was run: as §1

[14] = test system: NCI-H1395
How it was run: as §1

[15] = test system: NCI-H520
How it was run: as §1

[16] = test system: BEN
How it was run: as §1

[17] = test system: A-427
How it was run: as §1

[18] = test system: PC-3 [JPC-3]
How it was run: as §1

[19] = test system: NCI-H1651
How it was run: as §1

[20] = test system: NCI-H1650
How it was run: as §1

[21] = test system: NCI-H727
How it was run: as §1

[22] = test system: NCI-H838
How it was run: as §1

[23] = test system: H3255
How it was run: as §1

`Nc1cccc2c1CN(C1CCC(=O)NC1=O)C2=O` (configuration not stated) [Lenalidomide] + CC1(C)CCC(c2ccc(Cl)cc2)=C(CN2CCN(c3ccc(C(=O)NS(=O)(=O)c4ccc(N[C@H](CCN5CCOCC5)CSc5ccccc5)c(S(=O)(=O)C(F)(F)F)c4)cc3)CC2)C1 [Navitoclax] (partner 0.5 µM) gave a relative viability ([1]; first compound 0.253 µM) of 1.21, a relative viability ([1]; first compound 0.8 µM) of 1.26 and a relative viability ([1]; first compound 2.53 µM) of 1.21. For the same molecule, the relative viability ([1]; first compound 8 µM) was 1.28, the relative viability ([2]; first compound 0.253 µM) was 0.74 and the relative viability ([2]; first compound 0.8 µM) was 0.582. For the same molecule, the relative viability ([2]; first compound 2.53 µM) was 0.848, the relative viability ([2]; first compound 8 µM) was 0.364 and the relative viability ([3]; first compound 0.253 µM) was 0.729. The relative viability ([3]; first compound 0.8 µM) was 0.946, the relative viability ([3]; first compound 2.53 µM) was 1.45 and the relative viability ([3]; first compound 8 µM) was 0.924. It also gave a relative viability ([4]; first compound 0.253 µM) of 0.906, a relative viability ([4]; first compound 0.8 µM) of 0.855 and a relative viability ([4]; first compound 2.53 µM) of 0.88. The relative viability ([4]; first compound 8 µM) was 0.797, the relative viability ([5]; first compound 0.253 µM) was 0.448 and the relative viability ([5]; first compound 0.8 µM) was 0.421. For the same molecule, the relative viability ([5]; first compound 2.53 µM) was 0.478, the relative viability ([5]; first compound 8 µM) was 0.44 and the relative viability ([6]; first compound 0.253 µM) was 0.698. For the same molecule, the relative viability ([6]; first compound 2.53 µM) was 0.814, the relative viability ([6]; first compound 8 µM) was 0.676 and the relative viability ([7]; first compound 0.253 µM) was 1.08. For the same molecule, the relative viability ([7]; first compound 0.8 µM) was 1.11, the relative viability ([7]; first compound 2.53 µM) was 1.4 and the relative viability ([7]; first compound 8 µM) was 1.04. For the same molecule, the relative viability ([8]; first compound 0.253 µM) was 0.959, the relative viability ([8]; first compound 0.8 µM) was 0.736 and the relative viability ([8]; first compound 2.53 µM) was 1.02. It also gave a relative viability ([8]; first compound 8 µM) of 1.09, a relative viability ([9]; first compound 0.8 µM) of 0.544 and a relative viability ([9]; first compound 2.53 µM) of 0.502. The relative viability ([9]; first compound 8 µM) was 0.407, the relative viability ([10]; first compound 0.253 µM) was 0.994 and the relative viability ([10]; first compound 0.8 µM) was 1.01. The relative viability ([10]; first compound 2.53 µM) was 1.01, the relative viability ([10]; first compound 8 µM) was 0.745 and the relative viability ([11]; first compound 0.253 µM) was 1.25. The relative viability ([11]; first compound 0.8 µM) was 1.16, the relative viability ([11]; first compound 2.53 µM) was 1.26 and the relative viability ([11]; first compound 8 µM) was 1.2. The relative viability ([12]; first compound 0.253 µM) was 1.12, the relative viability ([12]; first compound 0.8 µM) was 1.15 and the relative viability ([12]; first compound 2.53 µM) was 1.3. It also gave a relative viability ([12]; first compound 8 µM) of 1.17, a relative viability ([13]; first compound 0.253 µM) of 0.876 and a relative viability ([13]; first compound 0.8 µM) of 0.917. For the same molecule, the relative viability ([13]; first compound 2.53 µM) was 0.999, the relative viability ([13]; first compound 8 µM) was 0.649 and the relative viability ([14]; first compound 0.253 µM) was 1.2. For the same molecule, the relative viability ([14]; first compound 2.53 µM) was 1.31, the relative viability ([14]; first compound 8 µM) was 0.978 and the relative viability ([15]; first compound 0.253 µM) was 0.958. It also gave a relative viability ([15]; first compound 0.8 µM) of 1.05, a relative viability ([15]; first compound 2.53 µM) of 1.22 and a relative viability ([15]; first compound 8 µM) of 0.892. It also gave a relative viability ([16]; first compound 0.253 µM) of 0.0599, a relative viability ([16]; first compound 0.8 µM) of 0.0573 and a relative viability ([16]; first compound 2.53 µM) of 0.0663. The relative viability ([16]; first compound 8 µM) was 0.0611, the relative viability ([17]; first compound 0.253 µM) was 0.99 and the relative viability ([17]; first compound 2.53 µM) was 0.911. It also gave a relative viability ([17]; first compound 8 µM) of 0.832, a relative viability ([18]; first compound 0.253 µM) of 0.752 and a relative viability ([18]; first compound 0.8 µM) of 0.771. The relative viability ([18]; first compound 2.53 µM) was 0.863, the relative viability ([18]; first compound 8 µM) was 0.734 and the relative viability ([19]; first compound 0.253 µM) was 1.04. The relative viability ([19]; first compound 0.8 µM) was 0.931, the relative viability ([19]; first compound 2.53 µM) was 1.25 and the relative viability ([19]; first compound 8 µM) was 0.898. For the same molecule, the relative viability ([20]; first compound 0.253 µM) was 1.06, the relative viability ([20]; first compound 0.8 µM) was 1.22 and the relative viability ([20]; first compound 2.53 µM) was 1.4. It also gave a relative viability ([20]; first compound 8 µM) of 1.24, a relative viability ([21]; first compound 0.253 µM) of 0.449 and a relative viability ([21]; first compound 2.53 µM) of 0.387. The relative viability ([21]; first compound 8 µM) was 0.345, the relative viability ([22]; first compound 0.253 µM) was 1.15 and the relative viability ([22]; first compound 0.8 µM) was 1.09. For the same molecule, the relative viability ([22]; first compound 2.53 µM) was 1.29, the relative viability ([22]; first compound 8 µM) was 1.1 and the relative viability ([23]; first compound 0.253 µM) was 0.519. It also gave a relative viability ([23]; first compound 0.8 µM) of 0.395, a relative viability ([23]; first compound 2.53 µM) of 0.589 and a relative viability ([23]; first compound 8 µM) of 0.523.
